Experimental findings from US10028938B2, “Antiviral agents and uses thereof” (Griffith University, priority 2014, dated 2018) are described below.

Where two headings read alike, the source gives them in different places.

Test [1] has as its target T1, hPIV-3 HN (UniProt P08492).
T1 sequence (P08492 1-572): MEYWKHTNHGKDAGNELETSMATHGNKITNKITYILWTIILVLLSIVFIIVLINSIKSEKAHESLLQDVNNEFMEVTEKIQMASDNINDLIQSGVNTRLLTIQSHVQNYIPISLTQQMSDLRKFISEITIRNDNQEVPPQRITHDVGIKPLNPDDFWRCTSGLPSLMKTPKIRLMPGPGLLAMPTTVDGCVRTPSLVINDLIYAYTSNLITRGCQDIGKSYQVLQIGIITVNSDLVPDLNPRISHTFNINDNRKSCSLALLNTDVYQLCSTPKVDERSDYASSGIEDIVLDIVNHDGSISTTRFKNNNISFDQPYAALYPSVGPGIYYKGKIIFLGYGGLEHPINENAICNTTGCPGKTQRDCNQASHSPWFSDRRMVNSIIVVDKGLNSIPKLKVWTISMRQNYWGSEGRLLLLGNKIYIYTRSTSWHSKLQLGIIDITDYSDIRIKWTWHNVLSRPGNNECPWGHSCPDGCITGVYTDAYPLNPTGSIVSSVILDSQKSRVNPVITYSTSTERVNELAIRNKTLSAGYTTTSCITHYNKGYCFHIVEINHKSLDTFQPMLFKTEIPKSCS
The test is classed as biochemical, hPIV-3 (strain C-243). On the set-up: rows headed: HI Mean IC50; hPIV-3 HN; 3 independent experiments; fold improvement in HI assay; other: versus 6; hPIV-3 HN HI IC50; other: text; other: text, unit given as M.

For test [2], the target named is T1, hPIV-3 HN. Format: biochemical, hPIV-3 (strain C-243). To be noted: read-out: NI hPIV-3 IC50. On the set-up: rows headed: NI hPIV-3 IC50.
For test [3], the target named is T1, hPIV-3 HN. Format: biochemical, hPIV-3 (strain C-243). On the set-up: rows headed: NI Mean IC50; hPIV-3 HN; 3 independent experiments; Ki; Km value for MUN; other: whole hPIV-3 virus, [I]=0; fold improvement in NI assay; other: versus 6; hPIV-3 HN NI IC50; other: text; other: text, unit given as M.
Test [4] relates to hPIV-3. The experiment in a line: In situ ELISA virus growth inhibition. Format: cell-based, hPIV-3 (strain C-243). A general note: ELISA stands for enzyme-linked immunosorbent assay.
Test [5] concerns hPIV-3. The experiment in a line: Virus growth inhibition assay, titration of progeny virus (focus forming assay) in LLC-MK2 cells. Format: cell-based, hPIV-3 (strain C-243). To be noted: 2 μM inhibitor, 48 h, LLC-MK2 cells, low MOI.
The target in test [6] is T1, hPIV-3 HN. The test is classed as biochemical, hPIV-3 (strain C-243). On the set-up: rows headed: NI Mean IC50; hPIV-3 HN; 3 independent experiments; Ki; Km value for MUN; other: whole hPIV-3 virus, [I]=0; fold improvement in NI assay; other: versus 6; hPIV-3 HN NI IC50; other: text; other: text, unit given as M. The source holds these as a separate data set.

As a reminder, the IC50 is the concentration needed to halve the response being measured. As usually defined, the Ki is the dissociation constant of the complex between target and ligand, obtained from inhibition or displacement. High values mean lower affinity, low ones higher affinity. Turning to `CC(C)C(=O)N[C@H]1[C@H]([C@H](O)[C@H](O)CO)OC(C(=O)O)=C[C@@H]1N=[N+]=[N-]` [Compound 6, BCX 2798, reference compound], the concentration for half-maximal inhibition (IC50) in test [1] (read-out: HI Mean IC50) is 16.1 µM; in test [1] (read-out: hPIV-3 HN HI IC50) it was 16.1 µM; in test [2], 18 µM; in test [4] (LLC-MK2, A549 and NHBE cells, read-out: Virus growth inhibition IC50, range over all three cell lines), 54.6 to 131 µM; in test [4] (LLC-MK2 cells, read-out: Virus growth IC50 (in situ ELISA)) it was 54.6 ± 3.8 µM; in test [4] (NHBE cells, read-out: Virus growth IC50 (in situ ELISA)), 79.3 ± 1 µM. For the same compound, the IC50 in test [4] (Table 4, A549 cells, hPIV-3, read-out: Cell-based ELISA IC50) was 130 µM; in test [6] (read-out: NI Mean IC50), 21.5 µM; in test [6] (read-out: hPIV-3 HN NI IC50), 21.5 µM. Besides, the affinity in test [3], expressed as Ki, was 16 µM. Further, in test [5], the “Virus growth inhibition (reduction in virus titre)” value is 14%.
